This note sets out measurements from US10538555B2, “Macrocyclic inhibitors of the PD-1/PD-L1 and CD80(B7-1)/PD-L1 protein/protein interactions” (BRISTOL-MYERS SQUIBB COMPANY, priority 2014, dated 2020).

The target in this test is T1, Human PD-L1/PD-1 (Homo sapiens, UniProt Q9NZQ7).
T1 construct: TVMV protease cleavage site (C); made in house; host or cells: HEK293T cells
Briefly: HTRF Human PD-L1/PD-1 binding assay (PD-1-Ig/PD-L1-His). The note with it: PD-L1-His 10 nM, PD-1-Ig 20 nM. An outline of the steps: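 Soluble HEK293T-expressed proteins: hPD-L1-His 10 nM, hPD-1-Ig 20 nM final. Cpd + PD-L1 15 min, + PD-1 15 min, + Eu anti-Ig 1 nM/APC anti-His 20 nM 30 min. Buffer dPBS, 0.1% BSA, 0.05% Tween-20. TR-FRET 665/620.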

The mark [1] stands for this setting: class symbol, read-out: HTRF Human PD-L1/PD-1 Binding Assay IC50 Range.

Read-outs that look alike come from different tables or passages of the source. Where a SMILES comes first, the peptide text is derived from it. Bridges are numbered along the chain shown (N, C = ends). [ ]: non-standard residue; d: D form. Morpholine(3S-CO) = O=C(O)[C@@H]1COCCN1; Bta = N[C@@H](Cc1csc2ccccc12)C(=O)O; Hyp = O=C(O)[C@@H]1C[C@@H](O)CN1; NMeNle = CCCC[C@H](NC)C(=O)O; Pip = O=C(O)[C@@H]1CCCCN1; Dab = NCC[C@H](N)C(=O)O; Dap = NC[C@H](N)C(=O)O

T1 sequence (Q9NZQ7 with tags, fused parts or gaps): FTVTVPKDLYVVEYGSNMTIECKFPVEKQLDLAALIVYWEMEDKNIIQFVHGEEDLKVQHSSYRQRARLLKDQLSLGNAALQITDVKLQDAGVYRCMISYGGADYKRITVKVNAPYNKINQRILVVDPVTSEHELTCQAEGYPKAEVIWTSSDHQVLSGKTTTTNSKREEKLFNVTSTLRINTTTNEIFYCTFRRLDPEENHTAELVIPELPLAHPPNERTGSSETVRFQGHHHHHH

Consider `CCCC[C@H]1C(=O)N(C)[C@@H](CCCC)C(=O)N[C@@H](C)C(=O)N[C@H](C(=O)NCC(N)=O)CSCC(=O)N[C@@H](Cc2ccc(O)cc2)C(=O)N2CCCC[C@H]2C(=O)N[C@@H](CC(=O)O)C(=O)N2CCC[C@H]2C(=O)N[C@@H](CN)C(=O)N[C@@H](CCC(N)=O)C(=O)N2C[C@H](O)C[C@H]2C(=O)N[C@@H](Cc2c[nH]c3ccccc23)C(=O)N[C@@H](CO)C(=O)N[C@@H](Cc2csc3ccccc23)C(=O)N1C` [Example 1507] ({CH2CO}-Y[Pip]DP[Dap]Q[Hyp]WS[Bta][NMeNle][NMeNle]ACG-NH2; thioether N-14), for which, under setting [1], the IC50 lay in the range of 1 to 9.9 nM. Take `CCCC[C@H]1C(=O)N(C)[C@@H](CCCC)C(=O)N[C@@H](C)C(=O)N[C@H](C(=O)NCC(N)=O)CSCC(=O)N[C@@H](Cc2ccc(O)cc2)C(=O)N2CCCC[C@H]2C(=O)N[C@@H](CC(=O)O)C(=O)N2CCC[C@H]2C(=O)N[C@@H](Cc2cnc[nH]2)C(=O)N[C@@H](CCC(N)=O)C(=O)N2C[C@H](O)C[C@H]2C(=O)N[C@@H](Cc2c[nH]c3ccccc23)C(=O)N[C@@H](CO)C(=O)N[C@@H](Cc2csc3ccccc23)C(=O)N1C` [Example 1508] ({CH2CO}-Y[Pip]DPHQ[Hyp]WS[Bta][NMeNle][NMeNle]ACG-NH2; thioether N-14): under setting [1], the IC50 was 1 to 9.9 nM. Still for that read-out and setting: to `CCCC[C@H]1C(=O)N(C)[C@@H](CCCC)C(=O)N[C@@H](C)C(=O)N[C@H](C(=O)NCC(N)=O)CSCC(=O)N[C@@H](Cc2ccc(O)cc2)C(=O)N2CCCC[C@H]2C(=O)N[C@@H](CC(=O)O)C(=O)N2CCC[C@H]2C(=O)N[C@@H](Cc2cnc[nH]2)C(=O)N[C@@H](CCC(N)=O)C(=O)N2C[C@H](O)C[C@H]2C(=O)N[C@@H](Cc2c[nH]c3ccccc23)C(=O)N[C@@H](CO)C(=O)N[C@@H](Cc2csc3ccccc23)C(=O)N1C` [Example 1509] ({CH2CO}-Y[Pip]DPHQ[Hyp]WS[Bta][NMeNle][NMeNle]ACG-NH2; thioether N-14) belongs 10 to 99.9 nM; to `CCCC[C@H]1C(=O)N(C)[C@@H](CCCC)C(=O)N[C@@H](C)C(=O)N[C@H](C(=O)NCC(N)=O)CSCC(=O)N[C@@H](Cc2ccc(O)cc2)C(=O)N2CCCC[C@H]2C(=O)N[C@@H](CC(=O)O)C(=O)N2CCC[C@H]2C(=O)N[C@@H](CN)C(=O)N[C@@H](CCC(=O)O)C(=O)N2C[C@H](O)C[C@H]2C(=O)N[C@@H](Cc2c[nH]c3ccccc23)C(=O)N[C@@H](CO)C(=O)N[C@@H](Cc2csc3ccccc23)C(=O)N1C` [Example 1510] ({CH2CO}-Y[Pip]DP[Dap]E[Hyp]WS[Bta][NMeNle][NMeNle]ACG-NH2; thioether N-14), 1 to 9.9 nM; to `CCCC[C@H]1C(=O)N(C)[C@@H](CCCC)C(=O)N[C@@H](CC(C)C)C(=O)N[C@H](C(=O)NCC(N)=O)CSCC(=O)N[C@@H](Cc2ccc(O)cc2)C(=O)N2CCCC[C@H]2C(=O)N[C@@H](CC(=O)O)C(=O)N2CCC[C@H]2C(=O)N[C@@H](Cc2cnc[nH]2)C(=O)N[C@@H](CCC(N)=O)C(=O)N2C[C@H](O)C[C@H]2C(=O)N[C@@H](Cc2c[nH]c3ccccc23)C(=O)N[C@@H](CO)C(=O)N[C@@H](Cc2csc3ccccc23)C(=O)N1C` [Example 1511] ({CH2CO}-Y[Pip]DPHQ[Hyp]WS[Bta][NMeNle][NMeNle]LCG-NH2; thioether N-14), 1 to 9.9 nM. For the compound `CCCC[C@H]1C(=O)N(C)[C@@H](CCCC)C(=O)N[C@@H](CCC(=O)O)C(=O)N[C@H](C(=O)NCC(N)=O)CSCC(=O)N[C@@H](Cc2ccc(O)cc2)C(=O)N2CCCC[C@H]2C(=O)N[C@@H](CC(=O)O)C(=O)N2CCC[C@H]2C(=O)N[C@@H](Cc2cnc[nH]2)C(=O)N[C@@H](CCC(=O)O)C(=O)N2C[C@H](O)C[C@H]2C(=O)N[C@@H](Cc2c[nH]c3ccccc23)C(=O)N[C@@H](CO)C(=O)N[C@@H](Cc2csc3ccccc23)C(=O)N1C` [Example 1512] ({CH2CO}-Y[Pip]DPHE[Hyp]WS[Bta][NMeNle][NMeNle]ECG-NH2; thioether N-14), the IC50 under setting [1] lay in the range of 10 to 99.9 nM.

Consider `CCCC[C@H]1C(=O)N(C)[C@@H](CCCC)C(=O)N[C@@H](CCC(=O)O)C(=O)N[C@H](C(=O)NCC(N)=O)CSCC(=O)N[C@@H](Cc2ccc(O)cc2)C(=O)N2CCCC[C@H]2C(=O)N[C@@H](CC(=O)O)C(=O)N2CCC[C@H]2C(=O)N[C@@H](Cc2cnc[nH]2)C(=O)N[C@@H](CCC(N)=O)C(=O)N2C[C@H](O)C[C@H]2C(=O)N[C@@H](Cc2c[nH]c3ccccc23)C(=O)N[C@@H](CO)C(=O)N[C@@H](Cc2csc3ccccc23)C(=O)N1C` [Example 1513] ({CH2CO}-Y[Pip]DPHQ[Hyp]WS[Bta][NMeNle][NMeNle]ECG-NH2; thioether N-14), for which the IC50 (read-out: HTRF Human PD-L1/PD-1 Binding Assay IC50) is 5.3 nM. For the compound `CCCC[C@H]1C(=O)N(C)[C@@H](CCCC)C(=O)N[C@@H](C)C(=O)N[C@H](C(=O)NCC(N)=O)CSCC(=O)N[C@@H](Cc2ccc(O)cc2)C(=O)N2CCOC[C@H]2C(=O)N[C@@H](CC(=O)O)C(=O)N2CCC[C@H]2C(=O)N[C@@H](Cc2cnc[nH]2)C(=O)N[C@@H](CCC(N)=O)C(=O)N2C[C@H](O)C[C@H]2C(=O)N[C@@H](Cc2c[nH]c3ccccc23)C(=O)N[C@@H](CO)C(=O)N[C@@H](Cc2c[nH]c3ccccc23)C(=O)N1C` [Example 1514] ({CH2CO}-Y[Morpholine(3S-CO)]DPHQ[Hyp]WSW[NMeNle][NMeNle]ACG-NH2; thioether N-14), under setting [1], the IC50 is 1 to 9.9 nM. As for `CCCC[C@H]1C(=O)N(C)[C@@H](CCCC)C(=O)N[C@@H](CCC(=O)O)C(=O)N[C@H](C(=O)NCC(N)=O)CSCC(=O)N[C@@H](Cc2ccc(O)cc2)C(=O)N2CCOC[C@H]2C(=O)N[C@@H](CC(=O)O)C(=O)N2CCC[C@H]2C(=O)N[C@@H](Cc2c[nH]cn2)C(=O)N[C@@H](CCC(N)=O)C(=O)N2C[C@H](O)C[C@H]2C(=O)N[C@@H](Cc2c[nH]c3ccccc23)C(=O)N[C@@H](CO)C(=O)N[C@@H](Cc2c[nH]c3ccccc23)C(=O)N1C` [Example 1515] ({CH2CO}-Y[Morpholine(3S-CO)]DPHQ[Hyp]WSW[NMeNle][NMeNle]ECG-NH2; thioether N-14), under setting [1], the IC50 fell in the range of 1 to 9.9 nM. Turning to `CCCC[C@H]1C(=O)N(C)[C@@H](CCCC)C(=O)N[C@@H](CN)C(=O)N[C@H](C(=O)NCC(N)=O)CSCC(=O)N[C@@H](Cc2ccc(O)cc2)C(=O)N2CCCC[C@H]2C(=O)N[C@@H](CC(N)=O)C(=O)N2CCC[C@H]2C(=O)N[C@@H](CN)C(=O)N[C@@H](CCC(=O)O)C(=O)N2C[C@H](O)C[C@H]2C(=O)N[C@@H](Cc2c[nH]c3ccccc23)C(=O)N[C@@H](CCN)C(=O)N[C@@H](Cc2c[nH]c3ccccc23)C(=O)N1C` [Example 1519] ({CH2CO}-Y[Pip]NP[Dap]E[Hyp]W[Dab]W[NMeNle][NMeNle][Dap]CG-NH2; thioether N-14), the IC50 under setting [1] was in the range of 1 to 9.9 nM. As for `CCCC[C@H]1C(=O)N(C)[C@@H](CCCC)C(=O)N[C@@H](CCC(=O)O)C(=O)N[C@H](C(=O)NCC(N)=O)CSCC(=O)N[C@@H](Cc2ccc(O)cc2)C(=O)N2CCOC[C@H]2C(=O)N[C@@H](CC(=O)O)C(=O)N2CCC[C@H]2C(=O)N[C@@H](CN)C(=O)N[C@@H](CCC(=O)O)C(=O)N2C[C@H](O)C[C@H]2C(=O)N[C@@H](Cc2c[nH]c3ccccc23)C(=O)N[C@@H](CO)C(=O)N[C@@H](Cc2c[nH]c3ccccc23)C(=O)N1C` [Example 1520] ({CH2CO}-Y[Morpholine(3S-CO)]DP[Dap]E[Hyp]WSW[NMeNle][NMeNle]ECG-NH2; thioether N-14), under setting [1], the IC50 was 1 to 9.9 nM.

For `CCCC[C@H]1C(=O)N(C)[C@@H](CCCC)C(=O)N[C@@H](CCC(=O)O)C(=O)N[C@H](C(=O)NCC(N)=O)CSCC(=O)N[C@@H](Cc2ccc(O)cc2)C(=O)N2CCCC[C@H]2C(=O)N[C@@H](CC(=O)O)C(=O)N2CCC[C@H]2C(=O)N[C@@H](CN)C(=O)N[C@@H](CCC(=O)O)C(=O)N2C[C@H](O)C[C@H]2C(=O)N[C@@H](Cc2c[nH]c3ccccc23)C(=O)N[C@@H](CO)C(=O)N[C@@H](Cc2c[nH]c3ccccc23)C(=O)N1C` [Example 1521] ({CH2CO}-Y[Pip]DP[Dap]E[Hyp]WSW[NMeNle][NMeNle]ECG-NH2; thioether N-14), the IC50 under setting [1] lay in the range of 1 to 9.9 nM.

As for `CCCC[C@H]1C(=O)N(C)[C@@H](CCCC)C(=O)N[C@@H](C)C(=O)N[C@H](C(=O)NCC(N)=O)CSCC(=O)N[C@@H](Cc2ccc(O)cc2)C(=O)N2CCOC[C@H]2C(=O)N[C@@H](CC(=O)O)C(=O)N2CCC[C@H]2C(=O)N[C@@H](CN)C(=O)N[C@@H](CC(C)C)C(=O)N2C[C@H](O)C[C@H]2C(=O)N[C@@H](Cc2c[nH]c3ccccc23)C(=O)N[C@@H](CO)C(=O)N[C@@H](Cc2c[nH]c3ccccc23)C(=O)N1C` [Example 1522] ({CH2CO}-Y[Morpholine(3S-CO)]DP[Dap]L[Hyp]WSW[NMeNle][NMeNle]ACG-NH2; thioether N-14), the IC50 under setting [1] was in the range of 10 to 99.9 nM. On to `CCCC[C@H]1C(=O)N(C)[C@@H](CCCC)C(=O)N[C@@H](C)C(=O)N[C@H](C(=O)NCC(N)=O)CSCC(=O)N[C@@H](Cc2ccc(O)cc2)C(=O)N2CCCC[C@H]2C(=O)N[C@@H](CC(=O)O)C(=O)N2CCC[C@H]2C(=O)N[C@@H](CN)C(=O)N[C@@H](CC(C)C)C(=O)N2C[C@H](O)C[C@H]2C(=O)N[C@@H](Cc2c[nH]c3ccccc23)C(=O)N[C@@H](CO)C(=O)N[C@@H](Cc2c[nH]c3ccccc23)C(=O)N1C` [Example 1523] ({CH2CO}-Y[Pip]DP[Dap]L[Hyp]WSW[NMeNle][NMeNle]ACG-NH2; thioether N-14), for which the IC50 under setting [1] is 1 to 9.9 nM. The same measure, in the same setting: to `CCCC[C@H]1C(=O)N(C)[C@@H](CCCC)C(=O)N[C@@H](C)C(=O)N[C@H](C(=O)NCC(N)=O)CSCC(=O)N[C@@H](Cc2ccc(O)cc2)C(=O)N2CCOC[C@H]2C(=O)N[C@@H](CC(=O)O)C(=O)N2CCC[C@H]2C(=O)N[C@@H](Cc2c[nH]cn2)C(=O)N[C@@H](CC(C)C)C(=O)N2C[C@H](O)C[C@H]2C(=O)N[C@@H](Cc2c[nH]c3ccccc23)C(=O)N[C@@H](CO)C(=O)N[C@@H](Cc2c[nH]c3ccccc23)C(=O)N1C` [Example 1525] belongs 1 to 9.9 nM.
